The subject of test [1] is AKT S473 phosphorylation (mTORC2). Kind of test: AlphaLISA/MSD analysis of AKT phosphorylation in MDA-MB-468 cells. The class given is cell-based. The note with it: Homo sapiens, MDA-MB-468, read-out: pAKT IC50. As to the method: Cell culture and reagents. Cells were obtained from ATCC, grown in appropriate medium supplemented with 10% fetal bovine serum and 1% penicillin/streptomycin and maintained at 37 °C in a humidified incubator at 5% CO 2.
AlphaLISA and MesoScale Discovery (MSD) analysis of 4EBP1, S6K and AKT phosphorylation. mTOR substrate phosphorylation in MDA-MB-468 cells was assayed using AlphaLISA SureFire Ultra kits for p4EBP1 Thr37/46, p-P70S6K Thr389 and p-AKT1/2/3 Ser473 (PerkinElmer), and MSD Multi-Array Assay Systems for Phospho-4EBP1 (Thr37/46) and Phospho-AKT (Ser473) (MSD). Cells were seeded at 25,000 cells per well and exposed the next day to serial three-fold dilutions of compounds in complete medium with 0.1% dimethylsulfoxide (DMSO). After indicated incubation times, cells were lysed and AlphaLISA or MSD performed according to the manufacturers’ protocols. Samples were read using an EnVision Multilabel Plate Reader (PerkinElmer) using standard AlphaLISA settings or using an MSD plate reader. Data were plotted as a function of logM [compound] with a sigmoidal concentration response (variable slope) model fitted to the data to estimate the inhibitor half-maximum effective concentration (EC 50) in Prism 7 (GraphPad). Alternatively, results were analyzed as percentage of control in which 0% was set as signal from 1 μM Torin1 and 100% was set as the mean of DMSO wells on each plate, and inhibitor EC 50 was estimated as described
Background: Alpha assays give light when donor and acceptor beads are brought close together.

The next test concerns IKKe, TBK1. Nature of the test: KiNativ kinase panel. It counts as cell-based, human. The note with it: 1 μM; MCF-7 Cells; Lys2; DIKPGNIMR
A further test concerns MAP3K15, MAP3K5, MAP3K6. Nature of the test: KiNativ kinase panel. It counts as cell-based, human. To be noted: 1 μM; MCF-7 Cells; Lys1; IAIKEIPER
For another test, the target named is T1, MAP4K3 (Homo sapiens, UniProt Q8IVH8).
T1 construct: MCF7 cells were exposed to; endogenous in cells; host or cells: MCF7
T1 sequence (Q8IVH8 1-894): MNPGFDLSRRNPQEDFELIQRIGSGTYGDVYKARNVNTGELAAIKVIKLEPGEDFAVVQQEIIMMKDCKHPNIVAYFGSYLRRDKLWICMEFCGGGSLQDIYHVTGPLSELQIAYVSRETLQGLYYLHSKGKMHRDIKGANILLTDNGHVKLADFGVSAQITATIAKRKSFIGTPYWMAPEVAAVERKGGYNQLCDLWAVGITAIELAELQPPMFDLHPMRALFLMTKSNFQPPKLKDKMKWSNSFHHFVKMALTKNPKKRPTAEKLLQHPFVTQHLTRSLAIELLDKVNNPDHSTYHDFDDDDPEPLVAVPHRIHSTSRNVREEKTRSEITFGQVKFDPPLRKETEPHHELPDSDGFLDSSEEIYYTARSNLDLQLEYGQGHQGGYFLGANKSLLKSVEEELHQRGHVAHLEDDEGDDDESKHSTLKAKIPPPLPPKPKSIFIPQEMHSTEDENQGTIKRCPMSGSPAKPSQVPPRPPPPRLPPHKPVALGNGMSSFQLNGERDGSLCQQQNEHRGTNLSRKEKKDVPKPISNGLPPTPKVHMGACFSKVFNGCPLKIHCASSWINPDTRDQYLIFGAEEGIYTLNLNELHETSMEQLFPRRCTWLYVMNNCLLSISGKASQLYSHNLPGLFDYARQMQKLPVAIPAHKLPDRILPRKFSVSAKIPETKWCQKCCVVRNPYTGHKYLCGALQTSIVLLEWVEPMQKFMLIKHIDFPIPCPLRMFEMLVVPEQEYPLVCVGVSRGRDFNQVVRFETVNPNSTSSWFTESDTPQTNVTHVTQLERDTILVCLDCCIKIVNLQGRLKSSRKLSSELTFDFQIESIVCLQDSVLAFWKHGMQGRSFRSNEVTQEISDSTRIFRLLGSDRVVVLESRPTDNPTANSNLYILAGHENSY
Nature of the test: KiNativ kinase panel. The class given is cell-based. To be noted: 1 μM, MCF-7 Cells.

A further test addresses T2, PIP5K3 (Homo sapiens, UniProt Q9Y2I7).
T2 construct: purchased ActivX Biosciences (KiNativ)
Kind of test: KiNativ kinase panel. It counts as cell-based. The note with it: 1 μM; MCF-7 Cells; ATP; GGKSGAAFYATEDDRFILK

The next test addresses T3, ULK3 (Homo sapiens, UniProt Q6PHR2).
T3 construct: endogenous in cells; host or cells: MCF7
T3 sequence (Q6PHR2 1-472): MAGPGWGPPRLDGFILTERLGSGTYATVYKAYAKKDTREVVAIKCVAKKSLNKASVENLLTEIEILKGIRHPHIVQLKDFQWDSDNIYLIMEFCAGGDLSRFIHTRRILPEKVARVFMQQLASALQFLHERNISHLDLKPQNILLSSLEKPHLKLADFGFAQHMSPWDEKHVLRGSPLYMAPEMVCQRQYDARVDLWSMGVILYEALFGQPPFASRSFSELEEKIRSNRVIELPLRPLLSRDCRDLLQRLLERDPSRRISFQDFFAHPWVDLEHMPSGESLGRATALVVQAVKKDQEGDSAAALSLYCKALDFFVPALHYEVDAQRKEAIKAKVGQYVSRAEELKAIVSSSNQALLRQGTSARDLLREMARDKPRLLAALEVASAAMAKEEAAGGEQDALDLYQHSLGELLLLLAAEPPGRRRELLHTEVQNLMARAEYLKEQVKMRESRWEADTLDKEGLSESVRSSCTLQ
Kind of test: KiNativ kinase panel. It counts as cell-based. The note with it: 1 μM, MCF-7 Cells.

Structures are written as SMILES.

T2 sequence (Q9Y2I7 whole entry): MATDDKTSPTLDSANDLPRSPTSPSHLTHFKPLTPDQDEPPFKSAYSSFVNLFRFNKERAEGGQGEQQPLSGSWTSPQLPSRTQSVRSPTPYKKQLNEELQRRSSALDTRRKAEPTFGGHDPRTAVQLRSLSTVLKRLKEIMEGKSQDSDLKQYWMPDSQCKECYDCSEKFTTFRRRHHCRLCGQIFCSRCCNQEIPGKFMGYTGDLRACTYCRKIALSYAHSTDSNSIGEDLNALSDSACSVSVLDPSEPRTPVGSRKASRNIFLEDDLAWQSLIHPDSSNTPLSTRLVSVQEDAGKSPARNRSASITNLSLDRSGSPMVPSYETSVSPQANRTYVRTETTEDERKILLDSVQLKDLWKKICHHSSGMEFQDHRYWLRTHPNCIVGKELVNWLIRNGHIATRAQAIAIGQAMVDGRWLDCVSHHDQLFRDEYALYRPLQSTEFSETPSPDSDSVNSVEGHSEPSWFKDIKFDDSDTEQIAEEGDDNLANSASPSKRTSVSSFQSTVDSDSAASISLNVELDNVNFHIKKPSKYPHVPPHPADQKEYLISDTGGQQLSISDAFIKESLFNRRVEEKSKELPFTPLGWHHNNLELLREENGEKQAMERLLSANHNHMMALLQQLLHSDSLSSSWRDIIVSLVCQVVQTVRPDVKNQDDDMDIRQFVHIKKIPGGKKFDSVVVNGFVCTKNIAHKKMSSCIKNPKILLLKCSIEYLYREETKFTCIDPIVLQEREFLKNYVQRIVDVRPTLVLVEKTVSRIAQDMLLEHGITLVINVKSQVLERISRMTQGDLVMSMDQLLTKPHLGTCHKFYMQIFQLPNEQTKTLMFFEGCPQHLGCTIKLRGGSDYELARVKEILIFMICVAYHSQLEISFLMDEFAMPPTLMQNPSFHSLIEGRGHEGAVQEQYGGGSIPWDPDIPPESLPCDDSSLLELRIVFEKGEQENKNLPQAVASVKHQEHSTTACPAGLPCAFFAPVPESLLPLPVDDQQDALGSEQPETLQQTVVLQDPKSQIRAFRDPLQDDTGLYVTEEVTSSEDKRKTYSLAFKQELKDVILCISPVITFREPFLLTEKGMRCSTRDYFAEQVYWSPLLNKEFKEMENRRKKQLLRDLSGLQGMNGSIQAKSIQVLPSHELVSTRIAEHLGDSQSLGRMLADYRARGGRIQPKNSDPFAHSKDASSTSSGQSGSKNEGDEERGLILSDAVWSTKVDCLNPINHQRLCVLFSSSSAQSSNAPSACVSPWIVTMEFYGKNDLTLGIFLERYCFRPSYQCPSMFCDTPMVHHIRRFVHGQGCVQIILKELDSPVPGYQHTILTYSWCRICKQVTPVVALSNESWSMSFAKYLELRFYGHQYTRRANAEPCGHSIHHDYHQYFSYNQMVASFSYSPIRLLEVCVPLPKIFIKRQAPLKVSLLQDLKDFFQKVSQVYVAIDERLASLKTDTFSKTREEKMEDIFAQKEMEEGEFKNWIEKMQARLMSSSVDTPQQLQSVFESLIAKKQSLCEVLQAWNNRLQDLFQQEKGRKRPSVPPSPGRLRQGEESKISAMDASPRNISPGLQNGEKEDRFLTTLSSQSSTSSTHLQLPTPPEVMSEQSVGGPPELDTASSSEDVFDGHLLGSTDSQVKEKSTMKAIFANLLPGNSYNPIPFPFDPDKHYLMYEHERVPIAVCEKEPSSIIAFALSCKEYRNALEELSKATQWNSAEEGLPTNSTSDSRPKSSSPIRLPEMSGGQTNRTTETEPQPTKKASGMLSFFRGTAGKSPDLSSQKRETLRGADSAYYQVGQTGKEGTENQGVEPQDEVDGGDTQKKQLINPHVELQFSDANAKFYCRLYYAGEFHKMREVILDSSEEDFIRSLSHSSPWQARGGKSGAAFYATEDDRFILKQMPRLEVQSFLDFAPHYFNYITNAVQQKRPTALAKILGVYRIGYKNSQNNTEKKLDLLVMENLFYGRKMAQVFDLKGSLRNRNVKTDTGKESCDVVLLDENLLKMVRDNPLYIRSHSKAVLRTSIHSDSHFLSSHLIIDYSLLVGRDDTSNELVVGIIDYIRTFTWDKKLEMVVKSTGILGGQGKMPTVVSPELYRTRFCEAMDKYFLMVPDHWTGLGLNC

Turning to `CO[C@H]1C[C@@H]2CC[C@@H](C)[C@@](O)(O2)C(=O)C(=O)N2CCCC[C@H]2C(=O)O[C@H]([C@H](C)C[C@@H]2CC[C@@H](OC(=O)NCCOCCOCCOCCOCCOCCOCCOCCOCCC(=O)N3CCc4cc(Cn5nc(-c6ccc7oc(N)nc7c6)c6c(N)ncnc65)ccc4C3)[C@H](OC)C2)C[C@@H](O)[C@H](C)/C=C(\C)[C@@H](O)[C@@H](OC)C(=O)[C@H](C)C[C@H](C)/C=C/C=C/C=C/1C` [compound 38], the IC50 (in general, the concentration that gives 50% inhibition) in test [1] was 19 nM. Moreover, the “KiNativ Kinase Panel Data” value in the test on IKKe, TBK1 is -33.9; in the test with MAP3K15, MAP3K5, MAP3K6, 24.5; on MAP4K3 (Lys1, NVNTGELAAIKVIK) it was 12.2; on MAP4K3 (Lys2, DIKGANILLTDNGHVK), -6.9; on PIP5K3 it was 0.8; at ULK3 (Lys1, […]), 0.5. Further, on ULK3 (Lys2, […]), the “KiNativ Kinase Panel Data” value is listed as 11.9.
`CO[C@H]1C[C@@H]2CC[C@@H](C)[C@@](O)(O2)C(=O)C(=O)N2CCCC[C@H]2C(=O)O[C@H]([C@H](C)C[C@@H]2CC[C@@H](OC(=O)NCCOCCOCCOCCOCCOCCOCCOCCOCCC(=O)NCCS(=O)(=O)c3ccc(C(=O)N4CCOc5ccc(-c6ccc(N)nc6)cc5C4)c(C)c3F)[C@H](OC)C2)C[C@@H](O)[C@H](C)/C=C(\C)[C@@H](O)[C@@H](OC)C(=O)[C@H](C)C[C@H](C)/C=C/C=C/C=C/1C` [compound 40]: the “KiNativ Kinase Panel Data” value in the test with IKKe, TBK1 is reported as -21.1; in the test with MAP3K15, MAP3K5, MAP3K6, -4.5; on MAP4K3 (Lys1, NVNTGELAAIKVIK), -19.2; on MAP4K3 (Lys2, DIKGANILLTDNGHVK) it was 69.9; on PIP5K3, 19.9; at ULK3 (Lys1, EVVAIKCVAK), -22.8. In addition, the “KiNativ Kinase Panel Data” value at ULK3 (Lys2, NISHLDLKPQNILLSSLEKPHLK) is recorded as -5.4.

Source of the values: PMC9841523 (Journal of Medicinal Chemistry, 2022).
